Test results reported in US11680061B2, “Crystal forms C and E of pyrazin-2(1H)-one compound and preparation method therefor” (ZHANGZHOU PIEN TZE HUANG PHARMACEUTICAL CO., LTD., priority 2019, dated 2023).

Legend:
[1] = Pharmacokinetic evaluation in mice, single intragastric administration; type: in vivo, CD-1 mice (male)
Description: Experimental Purposes: To Test the Pharmacokinetics of the Compound in Mice
CD-1 mice (male), vehicle (0.5% (w/v) methylcellulose 0.5% (v/v) Tween 80 aqueous solution), trifluoroacetate salt of compound 0027.
The vehicle was 0.5% (w/v) methylcellulose and 0.5% (v/v) Tween 80 aqueous solution, and the formulation was prepared according to the following procedure: […]
Preparation of formulation for intragastric administration: […]
Animals in groups 1 and 2 were given 5 mg/mL and 30 mg/mL compound by single intragastric administration, respectively, with a dose volume of 10 mL/kg.
The animals were weighed before administration, and the administration volume was calculated according to the body weight.
Whole blood samples (30 μL) were collected at specified times (0.25, 0.5, 1, 2, 4, 6, 8, 24 hours) by saphenous vein collection and the actual time of collection was recorded in the test record. The acceptable error for the collection time points was ±1 minute for time points within 1 hour of administration and ±5% of the theoretical time for other time points.
All blood samples were immediately transferred to labeled commercial centrifuge tubes containing K2-EDTA. […] And the pharmacokinetic parameters were calculated, experimental result: See Table 5.

[2] = Hygroscopicity study by dynamic vapor sorption (DVS); type: physicochemical; conditions: 25° C. and 80% RH
Description: Dynamic Vapor Sorption (DVS) Method in the Present Disclosure
Instrument model: SMS DVS Advantage dynamic vapor sorption instrument
Test conditions: samples (10 mg to 15 mg) were placed in a DVS sample tray for testing.
Detailed DVS parameters are as follows:
Balance: dm/dt=0.01%/min (shortest: 10 min, longest: 180 min)
Drying: 120 min under 0% RH
RH (%) test step range: 0% to 90% to 0%
The evaluation classification of hygroscopicity was as follows:
10 to 15 mg of the crystal form C of the compound of formula (II) was placed in the DVS sample tray for testing.
10 to 15 mg of the crystal form E of the compound of formula (II) was placed in the DVS sample tray for testing.

Row | SMILES | Tlast ([1]; CD-1 mice, intragastric, 300 mpk, plasma) | pharmacokinetic index in mice ([1]; conclusion in words) | Classification of hygroscopicity [2] | ΔW, hygroscopic weight gain [2]
1 | COc1cc(OC)c(Cl)c(-c2nc(-c3nc(-c4cn(C)nc4C)cnc3N)cn(C)c2=O)c1 | 24.0 h | good | – | –
2 | COc1cc(OC)c(Cl)c(-c2nc(-c3nc(-c4cn(C)nc4C)cnc3N)cn(C)c2=O)c1 [crystal form C of the compound of formula (II)] | – | – | slightly hygroscopic | 1.1%
3 | COc1cc(OC)c(Cl)c(-c2nc(-c3nc(-c4cn(C)nc4C)cnc3N)cn(C)c2=O)c1 [crystal form E of the compound of formula (II)] | – | – | slightly hygroscopic | 0.5%
